According to article PMC8233510 (Molecular Biology and Evolution, 2021):
Blank lines part the entries; values can stand above or below the compound they belong to.

Key:
Experiment in all cases: […]-SAM radiochemical methyltransferase assay, Michaelis-Menten fit
Conditions in all cases: SAM 320 μM (saturating), 50 mM Tris-HCl, 24 °C
[1] = system: PcCS1; format: biochemical, Paullinia cupana
[2] = system: TcCS1; format: biochemical, Theobroma cacao
[3] = system: PcAncCS1; format: biochemical, synthetic construct
[4] = system: TcAncCS1; format: biochemical, synthetic construct
[5] = system: TcAncCS2; format: biochemical, synthetic construct
[6] = system: PcCS2; format: biochemical, Paullinia cupana
[7] = system: TcCS2; format: biochemical, Theobroma cacao
[8] = system: CsAncCS; format: biochemical, synthetic construct

Compound: O=c1[nH]c(=O)c2[nH]cnc2[nH]1 [X, xanthine]
- Km [1]: 95.4 µM
- Km [2]: 95.8 µM
- Km [3]: 418 µM
- Km [4]: 53.4 µM
- Km [5]: 4.14 µM

Compound: Cn1c(=O)[nH]c(=O)c2[nH]cnc21 [3X, 3-methylxanthine]
- Km [6]: 677 µM
- Km [4]: 139 µM
- Km [7]: 49.1 µM
- Km [5]: 154 µM

- Km [4]: 34.6 µM
- Km [8]: 26.7 µM
Compound: Cn1cnc2[nH]c(=O)[nH]c(=O)c21 [7X, 7-methylxanthine]
